Reference: US10408783B2, “Electrochemical methods and compounds for the detection of enzymes” (GEORGIA STATE UNIVERSITY RESEARCH FOUNDATION, INC., priority 2014, dated 2019)
“Also recorded” adds a separate entry of the source.

Assays:
α-Mannosidase = format: biochemical; conditions: substrate incubated with α-Mannosidase
β-Galactosidase = conditions: substrate incubated with β-Galactosidase
[1] = system: β-N-Acetylglucosaminidase; format: biochemical; conditions: substrate incubated with β-N-Acetylglucosaminidase
H3N2 A/HongKong/8/68 = experiment: Electrochemical assay, 3 electrode system: SG1 cleavage and drug susceptibility; format: biochemical, Influenza A virus; conditions: 10 ng antiviral premixed 30 min before SG1
H1N1 A/Brisbane/59/2007 = experiment: as above; format: biochemical, Influenza A virus; conditions: 10 ng antiviral premixed 30 min before SG1
[2] = system: membrane free soluble N1 NA (strain H5N1 A/Anhui/1/2005); format: biochemical, influenza virus; conditions: 10 ng antiviral premixed 30 min before SG1
[3] = system: N2 NA (strain A/Babol/36/2005); experiment: Electrochemical assay, 3 electrode system: SG1 cleavage and drug susceptibility; format: biochemical, influenza virus; conditions: 10 ng antiviral premixed 30 min before SG1
H3N2 A/Aichi/2/1968 = experiment: as above; format: biochemical, Influenza A virus; conditions: 10 ng antiviral premixed 30 min before SG1
[4] = system: bacterial NA (BNA) from Clostridium perfringens; format: biochemical; conditions: antiviral premixed with bacterial NA, then SG1
β-Glucuronidase = conditions: substrate incubated with β-Glucuronidase

SMILES | i, value of electrochemical assay (β-Galactosidase) | inhibition of NA (glucose release from SG1) by antiviral (H3N2 A/HongKong/8/68) | inhibition of NA (glucose release from SG1) by antiviral (H1N1 A/Brisbane/59/2007) | inhibition of NA (glucose release from SG1) by antiviral [2] | inhibition of NA (glucose release from SG1) by antiviral [3] | inhibition of NA (glucose release from SG1) by antiviral (H3N2 A/Aichi/2/1968) | further results
OCC1O[C@@H](OCc2ccc(O[C@H]3OC(CO)[C@@H](O)[C@H](O)C3O)cc2)C(O)[C@@H](O)[C@@H]1O (stereo partly shown) [Substrate 20] | 10.2 ± 0.6 10^−8 A |  |  |  |  |  | i, value of electrochemical assay (α-Mannosidase): 81.0 ± 1.8 10^−8 A
CC(=O)NC1[C@H](Oc2ccc(CO[C@@H]3OC(CO)[C@@H](O)[C@H](O)C3O)cc2)OC(CO)[C@@H](O)[C@@H]1O (stereo partly shown) [Substrate 23] |  |  |  |  |  |  | i, value of electrochemical assay [1]: 28.5 ± 4.0 10^−8 A
CCOC(=O)C1=C[C@@H](OC(CC)CC)[C@H](NC(C)=O)[C@@H](N)C1 [Oseltamivir] |  | completely inhibited; also recorded: Glucose was not released | completely inhibited; also recorded: Glucose was not released | completely inhibited | completely inhibited | completely inhibited; also recorded: Glucose was not released | 
CC(=O)N[C@H]1[C@H]([C@H](O)[C@H](O)CO)OC(C(=O)O)=C[C@@H]1N=C(N)N [Zanamivir] |  | completely inhibited; also recorded: Glucose was not released | completely inhibited; also recorded: Glucose was not released | completely inhibited | completely inhibited | completely inhibited; also recorded: Glucose was not released | inhibition of bacterial NA (glucose release from SG1) by antiviral [4]: NA still cleaved SG1; also recorded: glucose was released
OCC1O[C@@H](OCc2ccc(O[C@@H]3OC(CO)[C@H](O)[C@H](O)C3O)cc2)C(O)[C@@H](O)[C@@H]1O (stereo partly shown) [Substrate 21] | 77.9 ± 7.3 10^−8 A |  |  |  |  |  | i, value of electrochemical assay (β-Glucuronidase): 10.4 ± 1.3 10^−8 A
